Assay results: patent publication US20240269106A1, “SMALL MOLECULE MODULATOR TARGETING A RARE HISTONE MODIFICATION REGULATING ADIPOGENESIS AND PHARMACEUTICAL FORMULATION THEREOF” (COUNCIL OF SCIENTIFIC AND INDUSTRIAL RESEARCH AN INDIAN …, priority 2021, published 2024)
Read-outs that look alike come from different tables or passages of the source.

What was measured:
[1] = Pharmacokinetic study, oral, serum LC-MS; format: in vivo, SD rats; settings: for Cl/F_obs / Vz/F_obs / AUC(0-t) / Cmax / Tmax / AUC(0-inf) / MRT inf / half-life: free drug coarse suspension; for AUC(0-t) / Cmax / Tmax / AUC(0-inf) / MRT inf / half-life: Sprague-Dawley (SD); for AUC(0-inf): read-out: AUC 0-inf_obs; for MRT inf: read-out: MRT 0-inf_obs; for half-life: read-out: t½ (converted)
Protocol: Healthy male SD rats (weighing 200-230 gm) were used for the pharmacokinetic study. The animals were fasted overnight and had free access to water. The animals were divided into six groups with each group having 6 male SD rats (6×6=36) and were orally administered with optimized compound X nano lipid carrier formulation and coarse suspension (free drug) of compound X. All the formulations were administered orally with the help of rat oral feeding tube. The group comprises as follows, GROUP 1: Only vehicle sodium suspension as control/blank. GROUP 2: Compound X optimized NLC formulation by oral delivery (25 mg/kg). GROUP 3: Compound X free drug as coarse suspension by oral delivery (25 mg/kg). GROUP 4: Compound X free drug as coarse suspension by oral delivery (50 mg/kg). GROUP 5: Compound X free drug as coarse suspension by oral delivery (100 mg/kg). GROUP 6: Compound X free drug as coarse suspension by oral delivery (200 mg/kg). Blood samples were withdrawn from retro-orbital venous plexus puncture at time intervals of 0.25, 0.5, 1, 2, 4, 8, 12, 24 and 48 hours. The blood samples were allowed to clot and centrifuged for 15 min at 4500 rpm. The serum was separated and transferred into clean micro centrifuge tubes and stored at −80° C. until further analysis. 50 μl of rat serum was taken from samples and added to extraction solvent 2.5% IPA in n-Hexane (2 mL) containing internal standard (SCTK-14 of 2.5 ng) than Vortexed for 10 minutes, the samples were centrifuged at 4500 rpm and 4° C. for 15 minutes. After centrifugation, samples were stored at −80° C. for 30 minutes, and the supernatant organic layer was transferred and evaporated to dryness in a thermostatically controlled water bath maintained at 30° C. under steam of nitrogen for 30 minutes. After drying the residue was reconstituted by adding 200 microlitres of acetonitrile into pre-labelled vials and vortexed for 20 seconds, and then the samples were injected into the LC-MS system for analysis.
The pharmacokinetic parameters of compound X were calculated by non-compartmental estimations using PK solver 2.0 software.

3T3L1 cells = experiment: MTT assay for cytotoxicity testing; format: cell-based; settings: 25 μM; 2, 4 and 6 days
Protocol: 12500 cells/mL were seeded in presence/absence of compound of Formula I in […] plate and at different intervals of time (2 days, 4 days, 6 days), 1/10th volume of 5 mg/ml MTT solution was added to it followed by incubation at 37° C. for 3 hours. The formed crystals were dissolved in DMSO and spectrometric estimation of colour intensity was done at 570 nm.
MTT assay was performed to check for any possible cellular toxicity effect of compound of Formula I, using 25 μM concentration of the compound on 3T3L1 cells upon incubation for varying lengths of time (2, 4 and 6 days). Comparison was done with cells that were left untreated or treated with DMSO as solvent control (FIG. 3).

[2] = system: C57BL/6J mice maintained on high fat diet; experiment: Standardization of dosage and administration mode, intraperitoneal, high fat diet mice; format: in vivo
Protocol: Male C57BL/6J mice (8 weeks old) bred in house were obtained and acclimatized for 1 week prior to experiments. Mice were maintained on a 12-hour light/dark cycle at 22+/−3° C. and a relative humidity of 55% and given ad libitum access to food and water. The age-matched C57BL/6J mice were maintained on a standard laboratory chow diet or high fat diet (60 kcal % fat) and water. Two groups were intraperitoneally injected with compound x at two different doses (20 mg/Kg bw and 50 mg/kg bw) twice every week. A third group was injected with equivalent volume of DMSO (for 50 mg/kg bw) as vehicle control. Body weight and food intake was measured twice every week.

[3] = system: genes associated with adipogenesis; experiment: RT-PCR of adipogenesis related genes in 3T3L1; format: cell-based; settings: 3T3L1, RT-PCR
Protocol: Total RNA was isolated from the treated 3T3L1 cells by phenol-chloroform method. The isolated RNA samples were treated with 2 units/μL DNase I to remove any residual DNA followed by overnight ethanol precipitation at −80° C. RNA integrity was checked in 1% agarose gel. 2 μg RNA was used for cDNA synthesis using oligo dT primers. RT-PCR was done using primers of adipogenesis related genes followed by detection with SYBR Green.
RT-PCR analysis was performed to show downregulation of genes associated with adipogenesis by compound of Formula I (FIG. 5). Error bars denote mean+/−SD of three biological replicates, one-way ANOVA with Dunnett's multiple comparison; * P<0.05, ** P<0.01, *** P<0.001, ns: not significant.

[4] = male, rat, serum, 25 mg/kg oral
[5] = male, rat, serum, 50 mg/kg oral
[6] = male, rat, serum, 100 mg/kg oral
[7] = male, rat, serum, 200 mg/kg oral

## COc1ccc(C(=O)C2=C3OC(C)(C)[C@@H](CC=C(C)C)C[C@@]34C[C@@H](CC=C(C)C)C(C)(C)[C@@](CC=C(C)C)(C2=O)C4=O)cc1OC [Compound X]
[1]; free compound X at 25, 50, 100 and 200 mg/kg, except at 200 mg/kg
  difference in AUC between doses: no appreciable difference in AUC
[1]; 25 mg/kg oral
  Cl/F_obs: 3.338 ± 0.33 mg)/(ng/ml)/h
  Vz/F_obs: 71.906 ± 29.05 (mg)/(ng/ml)
[1]; 50 mg/kg oral
  Cl/F_obs: 8.071 ± 2.12 mg)/(ng/ml)/h
  Vz/F_obs: 193.686 ± 112.43 (mg)/(ng/ml)
[1]; 100 mg/kg oral
  Cl/F_obs: 18.233 ± 4.3 mg)/(ng/ml)/h
  Vz/F_obs: 346.653 ± 2.6193 (mg)/(ng/ml)
[1]; 200 mg/kg oral
  Cl/F_obs: 10.882 ± 4.58 mg)/(ng/ml)/h
  Vz/F_obs: 209.737 ± 91.22 (mg)/(ng/ml)
[1]; male, SD, rat, serum, oral, free compound X, 200 mg/kg dose
  AUC: ~20 ng·h/mL
[1]; [4]
  AUC(0-t): 6.56 ± 1.57 ng·h/mL
  Cmax: 0.853 ± 0.09 ng/mL
  Tmax: 4.67 ± 3.05 h
  AUC(0-inf): 7.54 ± 0.8 ng·h/mL
  MRT inf: 22.2 ± 9.59 h
  half-life: 880 ± 304 min
[1]; [5]
  AUC(0-t): 4.74 ± 0.1 ng·h/mL
  Cmax: 2.49 ± 0.14 ng/mL
  Tmax: 0.333 ± 0.14 h
  AUC(0-inf): 6.49 ± 1.71 ng·h/mL
  MRT inf: 28.4 ± 22.8 h
  half-life: 1120 ± 734 min
[1]; [6]
  AUC(0-t): 5.29 ± 0.99 ng·h/mL
  Cmax: 0.343 ± 0.15 ng/mL
  Tmax: 0.667 ± 0.28 h
  AUC(0-inf): 5.74 ± 1.6 ng·h/mL
  MRT inf: 21 ± 3.98 h
  half-life: 827 ± 224 min
[1]; [7]
  AUC(0-t): 19.1 ± 7.84 ng·h/mL
  Cmax: 2.83 ± 2.16 ng/mL
  Tmax: 2.92 ± 4.4 h
  AUC(0-inf): 20.6 ± 7.98 ng·h/mL
  MRT inf: 15.7 ± 2.87 h
  half-life: 807 ± 259 min
3T3L1 cells
  toxic effect (MTT): No toxic effect
[2]; 20 mg/kg bw intraperitoneal twice every week
  weight gain: not sufficient for arresting weight gain
[2]; 50 mg/kg bw intraperitoneal twice every week, DMSO vehicle gave almost similar arrest
  body weight: did have an attenuating effect
[3]
  expression of genes associated with adipogenesis: downregulation
